Tested on: chromosomal GFP
Test: CRISPRi GFP repression assay in E. coli
Format: cell-based, Escherichia coli MG1655
Conditions: ligand dose response on arC9:231, SOB media, normalized to vector control
Excerpt: Escherichia coli MG1655, which have chromosomally integrated constitutive GFP and RFP expression, were used for in vivo screening, fluorescence measurements, and transformation assays. Cell transformation, plasmid maintenance, and verification of transformation were done as previously described using AmpR and CmR as selectable markers. EZ-rich defined growth medium (EZ-RDM, Teknoka) was used for in vivo fluorescence assays unless otherwise noted. Super optimal broth (S.O.B) medium was used for library outgrowth and screening. The arC9 ligands used (4-hydroxytamoxifen (4-HT), nafoxidine, beta-estradiol, and diethylstilbestrol) were all ordered from Sigma and resuspended in dimethyl sulfoxide (DMSO).
For individual PDZ-construct testing, colonies were cultured from plates, PDZ-dCas9 plasmid DNA recovered, separated from the RFP guide plasmid (pgRNA-bacteria Addgene ID: 44251) via restriction digestion with BsaI and co-transformed with a guide plasmid to repress chromosomal GFP. GFP repression for each construct was then tested in triplicate in a 96-well microplate reader (Tecan M1000) at 37° C. PDZ clones were grown with appropriate antibiotics, 0.2 nM aTc, dCas9, and inducer. OD600 nm absorbance was measured for each well. GFP signal was measured, normalized for OD600 nm and compared when the cultures were approaching saturation (80% of the maximum OD600 nm) The arC9 construct was treated and assayed in the same fashion as above with induction using […]. Fold changes for the effect of different ligands were calculated by normalizing the GFP/OD600 of the arC9 construct to that of a vector control and dividing the fluorescent values without ligand by the fluorescent values with ligand treatment. For single cell analysis of arC9, cells were grown for ˜6 hours with antibiotics and inducer, washed with PBS, and assayed for GFP fluorescence using a Sony SH800 cell sorter.

Row | Molecule | effect of ligand on arC9:231 CRISPRi-based GFP repression
1 | 4-hydroxytamoxifen [4-HT] | increased
2 | C[C@]12CC[C@@H]3c4ccc(O)cc4CC[C@H]3[C@@H]1CC[C@@H]2O [beta-estradiol] | increased only with ligands that encourage the ER-LBD to enter an antagonist conformation
3 | CC/C(=C(/CC)c1ccc(O)cc1)c1ccc(O)cc1 [diethylstilbestrol] | increased only with ligands that encourage the ER-LBD to enter an antagonist conformation
4 | COc1ccc2c(c1)CCC(c1ccccc1)=C2c1ccc(OCCN2CCCC2)cc1 [nafoxidine] | increased

— patent US11008555B2 (The Regents of the University of California, priority 2015, dated 2021)
